This note sets out measurements from patent publication US12240862B2, “Inhibitors of peptidylarginine deiminases” (Gilead Sciences, Inc., priority 2020, dated 2025).

The target in the test is T1, human PAD4 (Homo sapiens, UniProt Q9UM07).
T1 construct: human PAD4 (NM_012387), A2P663, was PCR amplified; His-SUMO (N, cleaved yes); made in house; host or cells: E. coli BL21(DE3)
T1 sequence (Q9UM07 2-663): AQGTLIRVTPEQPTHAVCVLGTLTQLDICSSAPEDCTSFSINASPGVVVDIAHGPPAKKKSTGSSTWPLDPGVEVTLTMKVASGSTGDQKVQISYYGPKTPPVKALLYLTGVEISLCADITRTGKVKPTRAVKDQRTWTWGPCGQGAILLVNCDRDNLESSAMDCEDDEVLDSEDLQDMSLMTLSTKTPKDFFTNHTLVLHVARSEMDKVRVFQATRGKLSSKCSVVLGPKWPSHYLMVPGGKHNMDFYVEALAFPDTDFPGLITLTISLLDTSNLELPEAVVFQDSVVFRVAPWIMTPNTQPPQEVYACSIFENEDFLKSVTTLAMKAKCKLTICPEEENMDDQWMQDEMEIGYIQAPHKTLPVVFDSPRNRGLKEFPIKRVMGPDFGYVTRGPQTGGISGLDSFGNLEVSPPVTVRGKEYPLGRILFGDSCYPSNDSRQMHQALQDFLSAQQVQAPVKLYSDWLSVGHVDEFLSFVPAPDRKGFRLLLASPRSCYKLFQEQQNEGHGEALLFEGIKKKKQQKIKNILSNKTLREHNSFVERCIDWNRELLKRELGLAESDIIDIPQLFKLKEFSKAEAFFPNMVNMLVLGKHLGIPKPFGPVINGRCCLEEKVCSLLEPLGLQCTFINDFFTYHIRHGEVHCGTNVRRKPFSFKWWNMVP
Kind of test: In vitro PAD4 BAEE biochemical assay. The note with it: human PAD4, BAEE substrate; 5 nM PAD4, 2 mM calcium chloride, 3 mM BAEE; geometric mean of multiple experiments. The procedure, abridged: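 Tag-free recombinant hPAD4 (5 nM), 2 mM CaCl2, 3 mM BAEE, 50 mM MOPS pH 7.6, 2 mM DTT; 30 min compound preincubation, 2 h reaction, all 25 °C. EDTA quench; ammonia read via o-phthalaldehyde amine coupling, 1 h.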
For orientation: IC50 means the concentration needed to halve the response being measured. Turning to `COc1cc(C(=O)N2CCC[C@@H](N)C2)cc2nc(-c3cc4ccc([C@@H](C)NC(=O)C56CC(C#N)(C5)C6)nc4n3CC3CC3)c(C3CC3)n12` [Example 139, ~{N}-[(1~{R})-1-[2-[7-[(3~{R})-3-aminopiperidine-1-carbonyl]-3-cyclopropyl-5-methoxyimidazo [1,2-a]pyridin-2-yl]-1-(cyclopropylmethyl)pyrrolo [2,3-b]pyridin-6-yl]ethyl]-3-cyanobicyclo[1.1.1]pentane-1-carboxamide], the IC50 came out at 208 nM.

Take `COc1cc(C(=O)N2[C@H]3CC[C@@H]2[C@H](N)C3)cc2nc(-c3cc4ccc(N[C@H](C)C(F)(F)F)nc4n3CC3CC3)c(C)n12` [Example 449]: the IC50 was found to be 6670 nM.

Regarding `COc1cc(C(=O)N2[C@H]3CC[C@@H]2[C@H](N)C3)cc2nc(-c3cc4ccc([C@@H](C)NC(=O)c5ccncc5F)nc4n3CC3CC3)c(C)n12` [Example 52], the IC50 is 31.4 nM.

In the case of `COc1cc(C(=O)N2[C@H]3CC[C@@H]2[C@H](N)C3)cc2nc(-c3cc4ccc(N5C(C)CCCCS5(=O)=O)nc4n3CC3CC3)c(C)n12` (some centres unmarked) [Example 445, [(1~{R},2~{R},4~{S})-2-amino-7-azabicyclo[2.2.1]heptan-7-yl]-[2-[1-(cyclopropylmethyl)-6-(3-methyl-1,1-dioxothiazepan-2-yl)pyrrolo [2,3-b]pyridin-2-yl]-5-methoxy-3-methylimidazo[1,2-a]pyridin-7-yl]methanone], the IC50 is 80.6 nM.

In the case of `COc1cc(C(=O)N2[C@H]3CC[C@@H]2[C@H](N)C3)cc2nc(-c3cc4ccc(N5CCNCCS5(=O)=O)nc4n3CC3CC3)c(C)n12` [Example 450, [(1~{R},2~{R},4~{S})-2-amino-7-azabicyclo [2.2.1]heptan-7-yl]-[2-[1-(cyclopropylmethyl)-6-(1,1-dioxo-1,2,5-thiadiazepan-2-yl)pyrrolo[2,3-b]pyridin-2-yl]-5-methoxy-3-methylimidazo[1,2-a]pyridin-7-yl]methanone], the half-inhibitory concentration (IC50) stood at 21.6 nM.

As to `COc1cc(C(=O)N2CCC[C@@H](N)C2)cc2nc(-c3cc4ccc(C(C)n5ccnn5)nc4n3CC3CC3)c(C)n12` (some centres unmarked) [Example 537, [(3~{R})-3-aminopiperidin-1-yl]-[2-[1-(cyclopropylmethyl)-6-[1-(triazol-1-yl)ethyl]pyrrolo[2,3-b]pyridin-2-yl]-5-methoxy-3-methylimidazo[1,2-a]pyridin-7-yl]methanone], the IC50 was determined as 571 nM.

In the case of `COc1cc(C(=O)N2[C@H]3CC[C@@H]2[C@H](N)C3)cc2nc(-c3cc4ccc([C@@H](C)NC(=O)c5cnco5)nc4n3CC3CC3)c(C)n12` [Example 117, ~{N}-[(1~{R})-1-[2-[7-[(1~{R},2~{R},4~{S})-2-amino-7-azabicyclo[2.2.1]heptane-7-carbonyl]-5-methoxy-3-methylimidazo [1,2-a]pyridin-2-yl]-1-(cyclopropylmethyl)pyrrolo [2,3-b]pyridin-6-yl]ethyl]-1,3-oxazole-5-carboxamide], the IC50 came out at 33.4 nM.

`COc1cc(C(=O)N2CCC[C@@H](N)C2)cc2nc(-c3cc4ccc([C@@H](C)N5CCCC5=O)nc4n3CC3CC3)c(C)n12` [Example 279, 1-[(1~{R})-1-[2-[7-[(3~{R})-3-aminopiperidine-1-carbonyl]-5-methoxy-3-methylimidazo [1,2-a]pyridin-2-yl]-1-(cyclopropylmethyl)pyrrolo [2,3-b]pyridin-6-yl]ethyl] pyrrolidin-2-one]: the IC50 amounted to 234 nM.

On to `COc1cc(C(=O)N2[C@H]3CC[C@@H]2[C@H](N)C3)cc2nc(-c3cc4ccc(C(CC(=O)N5CCCC5)C5CC5)nc4n3CC3CC3)c(C)n12` (some centres unmarked) [Example 542, 3-[2-[7-[(1~{R},2~{R}, 4~{S})-2-amino-7-azabicyclo[2.2.1]heptane-7-carbonyl]-5-methoxy-3-methylimidazo[1,2-a]pyridin-2-yl]-1-(cyclopropylmethyl)pyrrolo[2,3-b]pyridin-6-yl]-3-cyclopropyl-1-pyrrolidin-1-ylpropan-1-one], for which the IC50 was 119 nM.

For the molecule `CCC(CC(=O)N1CCCC1)c1ccc2cc(-c3nc4cc(C(=O)N5[C@H]6CC[C@@H]5[C@H](N)C6)cc(OC)n4c3C)n(CC3CC3)c2n1` (some centres unmarked) [Example 540, 3-[2-[7-[(1~{R},2~{R}, 4~{S})-2-amino-7-azabicyclo[2.2.1]heptane-7-carbonyl]-5-methoxy-3-methylimidazo[1,2-a]pyridin-2-yl]-1-(cyclopropylmethyl)pyrrolo[2,3-b]pyridin-6-yl]-1-pyrrolidin-1-ylpentan-1-one], the IC50 is 102 nM.

With `COc1cc(C(=O)N2C[C@@H]3CC[C@H]2[C@@H](N)C3)cc2nc(-c3cc4ccc(N(C(F)F)S(C)(=O)=O)nc4n3CC3CC3)c(C)n12` [Example 375, ~{N}-[2-[7-[(1~{S},4~{R}, 6~{S})-6-amino-2-azabicyclo[2.2.2]octane-2-carbonyl]-5-methoxy-3-methylimidazo[1,2-a]pyridin-2-yl]-1-(cyclopropylmethyl)pyrrolo [2,3-b]pyridin-6-yl]-~{N}-(difluoromethyl) methanesulfonamide], the IC50 was found to be 2730 nM.

`CCOC1C[C@@H]2CN(C(=O)c3cc(OC)n4c(C)c(-c5cc6ccc(N(C(F)F)S(C)(=O)=O)nc6n5CC5CC5)nc4c3)[C@H]1[C@@H]2N` (stereo partly drawn) [Example 371, N-[2-[7-[(1S,4R,7R)-7-amino-6-ethoxy-2-azabicyclo[2.2.1]heptane-2-carbonyl]-5-methoxy-3-methyl-imidazo[1,2-a]pyridin-2-yl]-1-(cyclopropylmethyl)pyrrolo [2,3-b]pyridin-6-yl]-N-(difluoromethyl) methanesulfonamide]: the IC50 came out at 10600 nM.

Turning to `COc1cc(C(=O)N2[C@H]3CC[C@@H]2[C@H](N)C3)cc2nc(-c3cc4ccc([C@@H](C)NC(=O)C5(C#N)CC5)nc4n3CC3CC3)c(C)n12` [Example 165, ~{N}-[(1~{R})-1-[2-[7-[(1~{R},2~{R},4~{S})-2-amino-7-azabicyclo[2.2.1]heptane-7-carbonyl]-5-methoxy-3-methylimidazo [1,2-a]pyridin-2-yl]-1-(cyclopropylmethyl)pyrrolo [2,3-b]pyridin-6-yl]ethyl]-1-cyanocyclopropane-1-carboxamide], the IC50 was 60.5 nM.

Regarding `COc1cc(C(=O)N2[C@H]3CC[C@@H]2[C@H](N)C3)cc2nc(-c3cc4ccc(N(C(F)F)S(C)(=O)=O)nc4n3CC3CC3)c(C3CC3)n12` [Example 385, ~{N}-[2-[7-[(1~{R},2~{R}, 4~{S})-2-amino-7-azabicyclo[2.2.1]heptane-7-carbonyl]-3-cyclopropyl-5-methoxyimidazo[1,2-a]pyridin-2-yl]-1-(cyclopropylmethyl)pyrrolo [2,3-b]pyridin-6-yl]-~{N}-(difluoromethyl) methanesulfonamide], the IC50 was found to be 156 nM.

For `COc1cc(C(=O)N2C[C@H]3CC[C@@H]2[C@@H]3N)cc2nc(-c3cc4ccc([C@@H](C)NC(=O)C(C)(C)C)nc4n3CC3CC3)c(C)n12` [Example 174, N-((R)-1-(2-(7-((1R,4R,7R)-7-amino-2-azabicyclo[2.2.1]heptane-2-carbonyl)-5-methoxy-3-methylimidazo[1,2-a]pyridin-2-yl)-1-(cyclopropylmethyl)-1H-pyrrolo [2,3-b]pyridin-6-yl)ethyl) pivalamide], the IC50 came out at 297 nM.

On to `CCc1ccc2cc(-c3nc4cc(C(=O)N5C[C@]6(N)CC[C@H]5C6)cc(OC)n4c3C)n(CC3CC3)c2n1` [Example 587, [(1~{S},4~{S})-4-amino-2-azabicyclo[2.2.1]heptan-2-yl]-[2-[1-(cyclopropylmethyl)-6-ethylpyrrolo[2,3-b]pyridin-2-yl]-5-methoxy-3-methylimidazo[1,2-a]pyridin-7-yl]methanone], for which the IC50 stood at 4460 nM.

Consider `COc1cc(C(=O)N2[C@@H]3C[C@@H](N)[C@H]2CC3C)cc2nc(-c3cc4ccc(N(C(F)F)S(C)(=O)=O)nc4n3CC3CC3)c(C)n12` (stereo partly drawn) [Example 352, N-[2-[7-[(1R,2R,4R)-2-amino-5-methyl-7-azabicyclo[2.2.1]heptane-7-carbonyl]-5-methoxy-3-methyl-imidazo[1,2-a]pyridin-2-yl]-1-(cyclopropylmethyl)pyrrolo [2,3-b]pyridin-6-yl]-N-(difluoromethyl) methanesulfonamide], for which the IC50 is 711 nM.

`COc1cc(C(=O)N2[C@H]3CC[C@@H]2[C@H](N)C3)cc2nc(-c3cc4ccc([C@@H](C)NC(=O)C56CC(C5)C6)nc4n3CC3CC3)c(C)n12` [Example 160, ~{N}-[(1~{R})-1-[2-[7-[(1~{R},2~{R},4~{S})-2-amino-7-azabicyclo[2.2.1]heptane-7-carbonyl]-5-methoxy-3-methylimidazo [1,2-a]pyridin-2-yl]-1-(cyclopropylmethyl)pyrrolo [2,3-b]pyridin-6-yl]ethyl]bicyclo[1.1.1]pentane-1-carboxamide]: the concentration for half-maximal inhibition (IC50) was 53.2 nM.

As for `CC[C@](C)(O)c1ccc2cc(-c3nc4cc(C(=O)N5[C@H]6CC[C@@H]5[C@H](N)C6)cc(OC)n4c3C)n(CC3CC3)c2n1` [Example 565, [(1~{R},2~{R},4~{S})-2-amino-7-azabicyclo [2.2.1]heptan-7-yl]-[2-[1-(cyclopropylmethyl)-6-[(2~{S})-2-hydroxybutan-2-yl]pyrrolo[2,3-b]pyridin-2-yl]-5-methoxy-3-methylimidazo[1,2-a]pyridin-7-yl]methanone], the IC50 is 159 nM.

In the case of `COc1cc(C(=O)N2[C@H]3CC[C@@H]2[C@H](N)[C@H](O)C3)cc2nc(-c3cc4ccc(N(C(F)F)S(C)(=O)=O)nc4n3CC3CC3)c(C)n12` [Example 311, ~{N}-[2-[7-[(1~{R}, 2~{S},3~{R},5~{S})-2-amino-3-hydroxy-8-azabicyclo[3.2.1]octane-8-carbonyl]-5-methoxy-3-methylimidazo [1,2-a]pyridin-2-yl]-1-(cyclopropylmethyl)pyrrolo [2,3-b]pyridin-6-yl]-~{N}-(difluoromethyl) methanesulfonamide], the IC50 came to 383 nM.
